# Measurements published in publication PMC12363342, “Investigating the N-terminal linker histone H1 subtypes as substrates for JmjC lysine demethylases” (RSC Chemical Biology, 2025).
# Square brackets hold non-standard residues; d marks the D form. Ends that are not written are not given here. Lys(Me3) = C[N+](C)(C)CCCC[C@H](N)C(=O)O
# What was measured:
# [1] = target: T1, KDM4D (Homo sapiens, UniProt Q6B0I6); test: formaldehyde dehydrogenase (FDH)-coupled demethylation assay, KDM4D; type: biochemical; settings: FDH-coupled fluorescence assay, KDM4D (400 nM), H1 peptide 1–50 μM, HEPES pH 7.5; for Km / kcat (KDM4D): FAS 20 μM, LAA 200 μM, 2OG 200 μM, NAD+ 500 μM, FDH 2.0 μM, mean ± SEM (n = 3); for kcat/KM (KDM4D): catalytic efficiency
# T1 construct: KDM4AM1-L359,[38]; KDM4DM1-L359,[39]; KDM4EM1-R336,[30]; His6 (N); made in house; host or cells: Escherichia coli
# T1 sequence (Q6B0I6 1-359): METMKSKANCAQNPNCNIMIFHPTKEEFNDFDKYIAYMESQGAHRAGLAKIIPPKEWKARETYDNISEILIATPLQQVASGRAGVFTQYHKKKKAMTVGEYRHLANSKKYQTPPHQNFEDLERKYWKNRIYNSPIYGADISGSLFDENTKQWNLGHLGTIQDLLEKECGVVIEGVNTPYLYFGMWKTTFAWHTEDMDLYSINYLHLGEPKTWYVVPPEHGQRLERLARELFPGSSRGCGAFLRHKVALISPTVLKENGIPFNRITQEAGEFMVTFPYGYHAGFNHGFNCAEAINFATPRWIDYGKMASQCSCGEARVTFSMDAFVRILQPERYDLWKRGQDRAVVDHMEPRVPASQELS
# Procedure: Kinetic parameters were determined by recording the initial reaction rates of NADH production at varying histone peptide concentrations (Fig. S24 and S25). The overall catalytic efficiencies (as measured by kcat/KM) gave the following rank orders for KDM4D: H1.5K26me3 (0.192 μM^−1 min^−1) > H1.3K24me3 (0.066 μM^−1 min^−1) ≈ H1.2K26me3 (0.063 μM^−1 min^−1) > H1.4K25me3 (0.044 μM^−1 min^−1). […] These rank orders differ somewhat from the initial screening results. However, given the complexities of 2OG oxygenase catalysis and the relatively low catalytic efficiencies observed, such apparent discrepancies are not unexpected.[28] It is also noteworthy that, in some instances, increased KM values correlate with elevated kcat values, resulting in similar kcat/KM ratios, particularly for H1.4K25me3 with KDM4D and H1.2K25me3 with KDM4E.
# Kinetic parameters for demethylation of N^ε-trimethylated H1 peptides by KDM4D and KDM4E (400 nM) measured using a formaldehyde dehydrogenase-coupled demethylation assay. H1 peptide (1–50 μM), FAS (20 μM), LAA (200 μM), 2OG (200 μM), NAD^+ (500 μM), KDM4 enzyme (0.8 μM) and FDH (2.0 μM) in HEPES buffer at pH 7.5. Each value is shown as mean ± SEM (n = 3)
# Substrate Km values for KDM4 enzymes were determined using a reported formaldehyde dehydrogenase/NAD coupled enzyme assay that quantifies formaldehyde production.[30] In brief, DNA encoding for wild-type full-length formaldehyde dehydrogenase was synthesised (by GenScript) and cloned into the pET-28B vector. The resultant plasmid was then transformed into the Rosetta strain of Escherichia coli. Coupled enzyme-assays were carried out in black polystyrene 384-well non-binding surface microplates (Corning) and kinetic measurements were obtained using a PHERAstar FS plate reader (BMG Labtech) equipped with a 350 nm excitation and 460 nm emission optic module.[30] All steps were performed in the assay buffer (50 mM HEPES pH 7.5, 0.01% (v/v) Tween-20). Substrate mixtures were prepared freshly and contained FAS (20 μM), LAA (200 μM), 2OG (200 μM), NAD^+ (500 μM), and H1 peptide (1–50 μM); they were dispensed (25 μL final volume) in triplicate. Assays were initiated by plate reader injection of 25 μL of a mixture of KDM4 (0.8 μM) and formaldehyde dehydrogenase (FDH) (2.0 μM) in assay buffer (50 mM HEPES pH 7.5, 0.01% (v/v) Tween-20). Production of NADH was measured at 60 second intervals over 25 cycles. Kinetic parameters were determined from the reaction rate during the initial linear phase of formaldehyde production, and specific activities were calculated from a formaldehyde standard curve and fitted to the Michaelis–Menten equation using GraphPad Prism Version 5.0 (GraphPad software, La Jolla, CA, USA). Each assay was carried out in triplicate with independently prepared reaction mixtures.
# [2] = target: T1, KDM4D; test: time-course 1H NMR assay of succinate production, KDM4D; type: biochemical; settings: KDM4D 10 μM, 2OG 400 μM, peptide 400 μM; for oxidation of H1 peptide by KDM4D (succinate production arising from 2OG oxidation): 1H NMR 700 MHz, 298 K, Fe(II) 100 μM, L-ascorbate 1 mM, 50 mM Tris-d11 pH 7.5, 60 min, two independent experiments; for succinate production rate with KDM4D, relative: 1H NMR time course, pH 7.5, compared to H1.4K25me3
# Description: Fig. 6 Time-course ^1H NMR analysis for reactions of KDM4D with H1 peptides. (A) KDM4D-catalysed succinate production for H1.3K24me3 (turquoise), H1.4K25me3 (raspberry), and H1.5K26me3 (khaki) compared to that without peptides (black). (B) KDM4D in the presence of 2OG without the H1 peptide; note that only low-level succinate production is observed. (C) Production of succinate measured for KDM4D/H1.3K24me3 over time, as evidenced by increasing integration of the singlet at δ^1H 2.31 ppm (corresponding to the succinate methylenes). Assay conditions are described in the Experimental details section.
# NMR spectra were acquired at 298 K using a Bruker AVIII 700 MHz NMR spectrometer equipped with a TCI helium-cooled CryoProbe. Data were processed using TopSpin v.3.6.2 software. Signal intensities were calibrated relative to TSP, δH 0 ppm, and the chemical shifts (ppm) are relative to the resonance of the solvent, δH 4.7 ppm. Assay mixtures contained KDM4D (10 μM), 2OG (400 μM), H1_20–34 peptide (400 μM), Fe(II) ammonium sulfate (100 μM), L-ascorbate (1 mM) and internal standard, 3-(trimethylsilyl)-2,2,3,3-tetradeuteropropionic acid (TSP, 800 μM) in 50 mM Tris-d11, pH 7.5. Aqueous stocks of 2OG, Fe(II) ammonium sulfate and L-ascorbate were prepared fresh on the day of testing. Samples were transferred to 3-mm diameter MATCH NMR tubes (CortecNet) and monitored by ^1H excitation sculpting with baseline optimisation using 16 transients. The time lapse between sample mixing and data acquisition was 6–7 min. The spectra were acquired every 2 min over 60 min. Starting material and product concentrations were quantified relative to the TSP concentration. Samples from two independent experiments were analysed by NMR spectroscopy.
Substance,Km [1] [µM],kcat (KDM4D) [1] [s⁻¹],kcat/KM (KDM4D) [1] [M⁻¹ s⁻¹],oxidation of H1 peptide by KDM4D (succinate production arising from 2OG oxidation) [2],"succinate production rate with KDM4D, relative [2]"
"KKKAAK[Lys(Me3)]AGGTPRKA [Peptide H1.2K26me3, 15-mer linker histone H1.2 residues 20-34 peptide, tri-methylated K26]",4.6 ± 0.41,0.00483 ± 0.00017,1050,,
"KKKAR[Lys(Me3)]SAGAAKRKA [Peptide H1.4K25me3, 15-mer linker histone H1.4 residues 20-34 peptide, tri-methylated K25]",60 ± 24.3,0.0443 ± 0.0152,733,clear evidence for oxidation,
"KKKATK[Lys(Me3)]AAGAGAAK [Peptide H1.5K26me3, 15-mer linker histone H1.5 residues 20-34 peptide, tri-methylated K26]",7.51 ± 0.77,0.024 ± 0.0013,3200,clear evidence for oxidation,slightly slower succinate production compared to H1.4K25me3
"KKKA[Lys(Me3)]KAGATAGKRK [Peptide H1.3K24me3, 15-mer linker histone H1.3 residues 20-34 peptide, tri-methylated K24]",5.93 ± 0.69,0.0065 ± 0.00033,1100,clear evidence for oxidation,slightly slower succinate production compared to H1.4K25me3
